In test [1] the target is T1, thrombin (Bos taurus, UniProt P00735).
T1 construct: thrombin consists of a 36-residue light chain and a 259-residue heavy chain; purchased Sigma-Aldrich Co. (St. Louis, MO, USA)
In words: fluorescence quenching of thrombin by P10 (Stern-Volmer, binding constant, thermodynamics). Further details: species or system Bovine. To be noted: 310 K, log (F0 − F)/F against log [Q].
Description: The Stern–Volmer plot at 290 K and 310 K was plotted to determine the quenching mechanism (static quenching or dynamic quenching), as shown in Fig. 2B. F0 and F represented the fluorescence intensity of thrombin in the absence and presence of P10, respectively. And [Q] represented the concentration of the quencher. In general, the stability and quenching constants of the compounds formed under the static quenching mechanism decrease with increasing temperature. The interaction under dynamic quenching increases the number of effective collisions and enhances energy transfer, thus increasing the quenching constant of the fluorescent material as the temperature increases.[26,30]
To confirm this conclusion, the fluorescence quenching data was further analyzed by the Stern–Volmer eqn (1).[31] Where Ksv represented the quenching constant of the Stern–Volmer.1 [drawing 1]
The binding constant (Kb) and the number of binding sites (n) can be obtained from eqn (2) when small molecules are independently bound to a set of equivalent sites on the macromolecule:[33]2 [drawing 2] […]
The fluorescence spectra were recorded on the Hitachi F-4500 fluorescence spectrophotometer (Hitachi, Japan). […] The fluorescence emission spectrum of the mixture from 290 nm to 420 nm was scanned, and the excitation wavelength was set to 280 nm. […]

Test [2] has as its target T1, thrombin. Put plainly: in vitro antithrombotic activity (thrombin-induced fibrinogen clotting, absorbance at 405 nm). The format is biochemical, Bovine. Here is the method: Antithrombotic activity was determined according to the method of Yang et al.[53] The samples of thrombin and fibrinogen were dissolved in 0.05 M pH 7.4 Tris–HCl buffer, respectively. The determination was carried out using the IMark plate reader (Uji-shi, Kyoto, Japan) at 405 nm. 140 μL of 1 mg mL^−1 fibrinogen and 40 μL of the sample were added to the microplate, then mixed and the absorbance was recorded as Sb. After, 10 μL of thrombin (12 IU mL^−1) was added to the mixture which was maintained at 37 °C for 10 min, and the absorbance was recorded as S. 40 μL of buffer instead of the sample was used for control group, and the absorbances were Cb and C, respectively. The antithrombotic activity was calculated from eqn (5) as follows:5 [drawing 4]

The subject of test [3] is thrombin. To be noted: cited from earlier work; for inhibition of thrombin activity: at a concentration of 0.4 mg mL^−1, purified from Alcalase 2.4L hydrolysate of peanut protein. The source says: In addition, three peptides SWAQL, GNHEAGE and CFNEYE were purified from the A ...

Where no end group is shown, it is not given here.

For the substance AGFAGDDAPR [P10, AGFAGDDAPR], the “Binding constant Kb” value on thrombin [1] worked out at 174 M⁻¹. The IC50 (in general, the point on the concentration scale where inhibition reaches its midpoint) on thrombin [2] was 164 µM.
Consider “CFNEYE [peptide purified from the Alcalase 2.4L hydrolysate of peanut protein]”, for which the “inhibition of thrombin activity” value in the test with thrombin [3] is “complete inhibition”.
“GNHEAGE [peptide purified from the Alcalase 2.4L hydrolysate of peanut protein]”: in the test with thrombin [3], the “inhibition of thrombin activity” value is “complete inhibition”.
Turning to KNAENELGEVTVR, the antithrombotic activity in the test with thrombin [3] (at a concentration of 1 mg mL^−1) is 67.21%.
For “SWAQL [peptide purified from the Alcalase 2.4L hydrolysate of peanut protein]”, the “inhibition of thrombin activity” value in the test on thrombin [3] was “complete inhibition”.
Turning to “VEPVTVNPHE [anticoagulant peptide purified from Buthus martensii Karsch]”, the “IC50, inhibition of thrombin activity” value with thrombin [3] (peptide purified from Buthus martensii Karsch) was 12 µg/mL.

(Values after publication PMC9064813, “Interaction of the synthetic antithrombotic peptide P10 with thrombin: a spectroscopy study” (RSC Advances, 2019).)
